{
  "source": "ChEMBL document CHEMBL4422633",
  "about": "“Antioxidant-Inspired Drug Discovery: Antitumor Metabolite Is Formed in Situ from a Hydroxycinnamic Acid Derivative upon Free-Radical Scavenging” (J Med Chem, 2019)",
  "key": {"NCI-H661 [1]": {"test_system": "NCI-H661", "assay": "Induction of DNA damage response in human NCI-H661 cells assessed as increase in H2AX expression at 10 uM after 24 hrs by alexa fluor 488-staining based flow cytometry", "format": "functional, cell-based"}, "NCI-H661 [2]": {"test_system": "NCI-H661", "assay": "Cytotoxicity against human NCI-H661 cells assessed as reduction in cell viability after 72 hrs by MTT assay", "format": "functional, cell-based", "settings": "NCI-H661, 72 h"}, "A549 [3]": {"test_system": "A549", "assay": "Induction of apoptosis in human A549 cells assessed as late apoptotic cells at 10 uM after 24 hrs by Annexin V/propidium iodide-staining based flow cytometry (reference value: 1.54 +/- 0.03%)", "format": "functional"}, "NCI-H460 [4]": {"test_system": "NCI-H460", "assay": "Induction of ROS generation in human NCI-H460 cells assessed as increase DHE positive cells at 10 uM after 24 hrs by DHE-staining based flow cytometry", "format": "functional, cell-based"}, "NCI-H661 [5]": {"test_system": "NCI-H661", "assay": "Induction of apoptosis in human NCI-H661 cells assessed as early apoptotic cells at 10 uM after 24 hrs by Annexin V/propidium iodide-staining based flow cytometry (reference value: 0.31 +/- 0.01%)", "format": "functional"}, "NCI-H661 [6]": {"test_system": "NCI-H661", "assay": "Induction of apoptosis in human NCI-H661 cells assessed as late apoptotic cells at 10 uM after 24 hrs by Annexin V/propidium iodide-staining based flow cytometry (reference value: 0.95 +/- 0.03%)", "format": "functional"}, "[7]": {"assay": "Drug level using p-coumaric acid methyl ester assessed as compound formation by reverse phase-HPLC and HPLC-MS analysis based Fenton reaction assay", "format": "physicochemical"}, "HaCaT [8]": {"test_system": "HaCaT", "assay": "Cytotoxicity against human HaCaT cells assessed as reduction in cell viability after 72 hrs by MTT assay", "format": "cell-based"}, "NCI-H661 [9]": {"test_system": "NCI-H661", "assay": "Induction of ROS generation in human NCI-H661 cells assessed as increase DHE positive cells at 10 uM after 24 hrs by DHE-staining based flow cytometry", "format": "functional, cell-based"}, "A549 [10]": {"test_system": "A549", "assay": "Cytotoxicity against human A549 cells assessed as reduction in cell viability after 72 hrs by MTT assay", "format": "functional, cell-based", "settings": "A549, 72 h"}, "NCI-H460 [11]": {"test_system": "NCI-H460", "assay": "Cytotoxicity against human NCI-H460 cells assessed as reduction in cell viability after 72 hrs by MTT assay", "format": "functional, cell-based", "settings": "NCI-H460, 72 h"}, "HaCaT [12]": {"test_system": "HaCaT", "assay": "Induction of apoptosis in human HaCaT cells assessed as necrotic cells at 10 uM after 24 hrs by Annexin V/propidium iodide-staining based flow cytometry (reference value: 1.88 +/- 0.02%)", "format": "cell-based"}, "[13]": {"assay": "Induction of apoptosis in human NCI-H460/R cells transfected with MDR assessed as early apoptotic cells at 10 uM after 24 hrs by Annexin V/propidium iodide-staining based flow cytometry (reference value: 0.22 +/- 0.01%)", "format": "functional"}, "[14]": {"assay": "Cytotoxicity against human NCI-H460/R cells transfected with MDR assessed as reduction in cell viability after 72 hrs by MTT assay", "format": "functional, cell-based", "settings": "NCI-H460, 72 h"}, "A549 [15]": {"test_system": "A549", "assay": "Induction of apoptosis in human A549 cells assessed as necrotic cells at 10 uM after 24 hrs by Annexin V/propidium iodide-staining based flow cytometry (reference value: 1.52 +/- 0.05%)", "format": "functional"}, "NCI-H460 [16]": {"test_system": "NCI-H460", "assay": "Induction of apoptosis in human NCI-H460 cells assessed as late apoptotic cells at 10 uM after 24 hrs by Annexin V/propidium iodide-staining based flow cytometry (reference value: 0.93 +/- 0.04%)", "format": "functional"}},
  "note": "The source made the active and inactive calls. No cut-off for these calls is given here.",
  "data": [
    {"smiles": "COC(=O)/C=C/C1(O)C=CC(=O)C=C1", "values": [
      {"measurement": "Activity", "setting": "NCI-H661 [1]", "result": "Active"},
      {"measurement": "IC50", "setting": "NCI-H661 [2]", "result": 1440, "unit": "nM"},
      {"measurement": "Activity", "setting": "A549 [3]", "result": 3.93, "unit": "%"},
      {"measurement": "Activity", "setting": "NCI-H460 [4]", "result": "Active"},
      {"measurement": "Activity", "setting": "NCI-H661 [5]", "result": 0.18, "unit": "%"},
      {"measurement": "Activity", "setting": "NCI-H661 [6]", "result": 9.57, "unit": "%"},
      {"measurement": "Drug uptake", "setting": "[7]", "result": "Active"},
      {"measurement": "IC50", "setting": "HaCaT [8]", "result": 4050, "unit": "nM"},
      {"measurement": "Activity", "setting": "NCI-H661 [9]", "result": "Active"},
      {"measurement": "IC50", "setting": "A549 [10]", "result": 4320, "unit": "nM"},
      {"measurement": "IC50", "setting": "NCI-H460 [11]", "result": 1850, "unit": "nM"},
      {"measurement": "Activity", "setting": "HaCaT [12]", "result": 5.21, "unit": "%"},
      {"measurement": "Activity", "setting": "[13]", "result": 0.12, "unit": "%"},
      {"measurement": "IC50", "setting": "[14]", "result": 2060, "unit": "nM"},
      {"measurement": "Activity", "setting": "A549 [15]", "result": 2.57, "unit": "%"},
      {"measurement": "Activity", "setting": "NCI-H460 [16]", "result": 3.35, "unit": "%"}
    ]}
  ]
}
